Columns and labels:
[1] = Electrochemical properties (onset oxidation/reduction potentials, HOMO, LUMO, gap); type: physicochemical; parameters: Eox / Ered: unit not given here; settings: for HOMO: HOMO = −e(Eox + 4.32); for Eg: HOMO-LUMO gap; for LUMO: LUMO = −e(Ered + 4.32); for Eox: onset oxidation potential; for Ered: onset reduction potential
Excerpt: The energy difference between HOMO and LUMO is also illustrated in FIG. 4. […] The compounds of formulae 1b-d have similar energy difference between HOMO and LUMO, meaning their potential energy levels are similar. Among the compounds of formulae 1a-d, it appears that the compound of formula 1a has the best potential energy suitable for being applied in organic photovoltaics; the compound of formula 1c is the second best.

[2] = Relative solubility in non-halogenated solvents, evaluated by visual observation; type: physicochemical; settings: concentration 30 mg/mL
Experimental: Each of the compounds is added into the test tubes containing five organic solvents at a concentration of 30 mg/mL.

## Cc1cccc(C)c1C(=O)OC12c3c4c5c6c7c8c(c9c%10c1c1c%11c3c3c%12c4c4c6c6c7c7c%13c8c9c8c9c%10c1c1c%10c%11c3c3c%11c%12c4c4c6c6c7c7c%13c8c8c9c1c1c%10c3c3c%11c4c6c4c7c8c1c34)C52O[Si](C)(C)c1ccccc1 (stereo not drawn) [Formula 1a]
[1]
  HOMO: −6.08 eV
  Eg: 2.41 eV
  LUMO: −3.67 eV
  Eox: 1.76
  Ered: −0.65
[2]
  Relative solubility in diethyl ether: Insoluble
  Relative solubility in toluene: Soluble

## Cc1cccc(C)c1C(=O)OC12c3c4c5c6c7c8c(c9c%10c1c1c%11c3c3c%12c4c4c6c6c7c7c%13c8c9c8c9c%10c1c1c%10c%11c3c3c%11c%12c4c4c6c6c7c7c%13c8c8c9c1c1c%10c3c3c%11c4c6c4c7c8c1c34)C52OC[Si](C)(C)c1ccccc1 (stereo not drawn) [Formula 1b]
[1]
  HOMO: −6.03 eV
  Eg: 2.25 eV
  LUMO: −3.78 eV
  Eox: 1.71
  Ered: −0.54
[2]
  Relative solubility in diethyl ether: Insoluble
  Relative solubility in ethanol: Insoluble
  Relative solubility in ethyl acetate: Insoluble

## CCCC[Si](C)(C)OC12c3c4c5c6c7c8c(c9c%10c1c1c%11c3c3c%12c4c4c6c6c7c7c%13c8c9c8c9c%10c1c1c%10c%11c3c3c%11c%12c4c4c6c6c7c7c%13c8c8c9c1c1c%10c3c3c%11c4c6c4c7c8c1c34)C52OC(=O)c1c(C)cccc1C (stereo not drawn) [Formula 1c]
[1]
  HOMO: −6.12 eV
  Eg: 2.29 eV
  LUMO: −3.83 eV
  Eox: 1.80
  Ered: −0.49
[2]
  Relative solubility in diethyl ether: Insoluble
  Relative solubility in ethanol: Insoluble
  Relative solubility in ethyl acetate: Insoluble
  Relative solubility in toluene: Soluble

## Cc1cccc(C)c1C(=O)OC12c3c4c5c6c7c8c(c9c%10c1c1c%11c3c3c%12c4c4c6c6c7c7c%13c8c9c8c9c%10c1c1c%10c%11c3c3c%11c%12c4c4c6c6c7c7c%13c8c8c9c1c1c%10c3c3c%11c4c6c4c7c8c1c34)C52O[Si](C)(C)C(C)(C)C (stereo not drawn) [Formula 1d]
[1]
  HOMO: −6.06 eV
  Eg: 2.22 eV
  LUMO: −3.84 eV
  Eox: 1.74
  Ered: −0.48
[2]
  Relative solubility in diethyl ether: Insoluble
  Relative solubility in ethanol: Insoluble
  Relative solubility in ethyl acetate: Insoluble
[2]; THF
  Relative solubility in tetrahydrofuran (THF): Insoluble
